Measurements published in patent US20240277670A1, “SAFE USE OF MMP-12 INHIBITOR” (Foresee Pharmaceuticals Co., Ltd., priority 2021, published 2024).
“Also recorded” adds a separate entry of the source. Where two headings read alike, the source gives them in different places.

Assays:
Type in all cases: in vivo, human
[1] = Multiple ascending dose (MAD) part, plasma pharmacokinetics; conditions: for CL/F / Kel / AI / CLss/F / Cavg / Cmin / Fl / RAUC2: AUC0-12 (Day 8)/AUC0-inf (Day 1) / AUC(0-t) / AUC(0-inf) / Cmax / half-life / Vd/F: mean; for AUC(0-t) / AUC(0-inf) / Cmax / half-life / Vd/F / Tmax: human, plasma; for Vd/F: read-out: Vz/F; for Tmax: median
Experimental: (§1) Three cohorts of eight subjects each (six on active and two on placebo) were enrolled and received the following treatments orally: 100 mg, 200 mg, and 400 mg ASD-in-Capsule b.i.d. (one dose on Days 1 and 8, twice-daily doses from Days 2 to 7) (FIG. 4).
Blood samples were collected post-dosing on Day 1 (at 0.5, 1, 2, 3, 4, 6, 8, 12, and 16 hours) and Day 8 (at 0.5, 1, 2, 3, 4, 6, 8, 10, 12, 16, 20, 24, 30, 36, and 48 hours) as well as immediately pre-morning dose on Days 2-7 and 2 hours post-morning dose on Days 4 and 6. Within 15 minutes of collection, blood samples were centrifuged at 2000 rpm for 10 minutes at 4° C., and, subsequently, the plasma was aliquoted, frozen, and stored at −70° C. pending PK analyses.
The samples were subjected to liquid chromatography followed by analyses by tandem mass spectrometry. The lower limit of quantification for the compound of formula (I) was 5 ng/mL.
The plasma PK parameters were derived by non-compartmental analyses using Phoenix® WinNonlin® version 6.3 or higher (Pharsight Corporation Inc., Mountain View, CA, USA). PK variables were summarized using arithmetic mean, standard deviation, median, minimum, maximum, the percent coefficient of variation, geometric mean, and a two-sided 95% confidence limit of the arithmetic mean and the geometric mean.

[2] = Single ascending dose (SAD) study, safety and tolerability
Experimental: Eight cohorts of eight subjects each (six on active and two on placebo) were enrolled. Two different oral formulations of the compound of formula (I) were tested. The initial formulation was neat active pharmaceutical ingredient (API) filled in oral capsules of the compound of formula (I) (API-in-Capsule) which was tested at three dose levels: 200 mg, 400 mg, and 800 mg. Subsequently, an improved oral formulation was tested, the amorphous solid dispersion (ASD) of the compound of formula (I) (ASD-in-Capsule) at five dose levels: 50 mg, 100 mg, 200 mg, 350 mg, and 450 mg (FIG. 1).
(§2) Safety and tolerability were assessed at pre-specified timepoints throughout the studies by AEs reporting, vital signs measurements, physical examination, laboratory tests, and ECG examinations.
(§3) Safety and tolerability data were evaluated for the treated population (all participants who took at least one dose of study medications). […] Descriptive statistics were used to evaluate the safety and tolerability data and for plasma concentrations and PK parameters of the compound of formula (I).

[3] = Food effect (FE) part, safety and tolerability; conditions: for Adverse events possibly-related to drug administration: 200 mg, ASD formulation
Experimental: In this part, eight subjects received 200 mg ASD-in-Capsule orally as a single dose in a randomized way, once under fasting conditions and once after the intake of a high fat breakfast, with a wash-out period of one week between successive dosing (FIG. 4).
as §2
as §3, with “evaluate the for safety and” for “evaluate the safety and”

[4] = Multiple ascending dose (MAD) part, safety and tolerability; conditions: for Adverse events possibly-related to drug administration: Multiple ascending dose, ASD formulation
Experimental: as §1, §2
as §3, with “evaluate the for safety and” for “evaluate the safety and”

[5] = Treatment A (100 mg ASD-in-Capsule oral), Day 1
[6] = Treatment A (100 mg, b.i.d. Days 2-7), Day 8
[7] = Treatment B (200 mg ASD-in-Capsule oral), Day 1
[8] = Treatment B (200 mg, b.i.d. Days 2-7), Day 8
[9] = Treatment C (400 mg ASD-in-Capsule oral), Day 1
[10] = Treatment C (400 mg, b.i.d. Days 2-7), Day 8
[11] = oral, Treatment A (100 mg, b.i.d. Days 2-7), Day 8
[12] = oral, Treatment B (200 mg, b.i.d. Days 2-7), Day 8
[13] = oral, Treatment C (400 mg, b.i.d. Days 2-7), Day 8

CL/F [1, 5]: 28.7 L/h
Kel [1, 5]: 0.106 h⁻¹
AI [1, 6]: 1.59
CLss/F [1, 6]: 23.1 L/h
Cavg [1, 6]: 365 ng/mL
Cmin [1, 6]: 156 ng/mL
Fl [1, 6]: 127%
Kel [1, 6]: 0.0897 h⁻¹
RAUC2: AUC0-12 (Day 8)/AUC0-inf (Day 1) ([1]; Treatment A (100 mg, b.i.d. Days 2-7)): 1.25
CL/F [1, 7]: 20.3 L/h
Kel [1, 7]: 0.119 h⁻¹
AI [1, 8]: 1.57
CLss/F [1, 8]: 16.2 L/h
Cavg [1, 8]: 1090 ng/mL
Cmin [1, 8]: 524 ng/mL
Fl [1, 8]: 132%
Kel [1, 8]: 0.0895 h⁻¹
RAUC2: AUC0-12 (Day 8)/AUC0-inf (Day 1) ([1]; Treatment B (200 mg, b.i.d. Days 2-7)): 1.26
CL/F [1, 9]: 24.0 L/h
Kel [1, 9]: 0.113 h⁻¹
AI [1, 10]: 1.40
CLss/F [1, 10]: 18.2 L/h
Cavg [1, 10]: 2060 ng/mL
Cmin [1, 10]: 1010 ng/mL
Fl [1, 10]: 142%
Kel [1, 10]: 0.115 h⁻¹
RAUC2: AUC0-12 (Day 8)/AUC0-inf (Day 1) ([1]; Treatment C (400 mg, b.i.d. Days 2-7)): 1.28
Steady state achieved ([1]; all three dose levels (100, 200, 400 mg b.i.d.)): ≤ 6 days
AUC(0-t) ([1]; oral, 100 mg, Treatment A (100 mg, b.i.d. Days 2-7), Day 8, read-out: AUC0-12): 4380 ng·h/mL
AUC(0-t) ([1]; oral, 200 mg, Treatment B (200 mg, b.i.d. Days 2-7), Day 8, read-out: AUC0-12): 13100 ng·h/mL
AUC(0-t) ([1]; oral, 400 mg, Treatment C (400 mg, b.i.d. Days 2-7), Day 8, read-out: AUC0-12): 24700 ng·h/mL
AUC(0-inf) [1, 11]: 6180 ng·h/mL
Cmax [1, 11]: 624 ng/mL
half-life [1, 11]: 8.37 h
Vd/F [1, 11]: 277 L
Tmax [1, 11]: 2 h
AUC(0-inf) [1, 12]: 19200 ng·h/mL
Cmax [1, 12]: 1920 ng/mL
half-life [1, 12]: 8.14 h
Vd/F [1, 12]: 189 L
Tmax [1, 12]: 1.5 h
AUC(0-inf) [1, 13]: 36300 ng·h/mL
Cmax [1, 13]: 3710 ng/mL
half-life [1, 13]: 6.57 h
Vd/F [1, 13]: 158 L
Tmax [1, 13]: 1.5 h
AUC(0-t) ([1]; po, 100 mg, Treatment A (100 mg ASD-in-Capsule oral), Day 1, read-out: AUC0-12): 2670 ng·h/mL
AUC(0-t) ([1]; po, 100 mg, Treatment A (100 mg ASD-in-Capsule oral), Day 1, read-out: AUC0-24): 3290 ng·h/mL
AUC(0-t) ([1]; po, 100 mg, Treatment A (100 mg ASD-in-Capsule oral), Day 1, read-out: AUC0-t): 3290 ng·h/mL
AUC(0-t) ([1]; po, 200 mg, Treatment B (200 mg ASD-in-Capsule oral), Day 1, read-out: AUC0-12): 7810 ng·h/mL
AUC(0-t) ([1]; po, 200 mg, Treatment B (200 mg ASD-in-Capsule oral), Day 1, read-out: AUC0-24): 9720 ng·h/mL
AUC(0-t) ([1]; po, 200 mg, Treatment B (200 mg ASD-in-Capsule oral), Day 1, read-out: AUC0-t): 9710 ng·h/mL
AUC(0-t) ([1]; po, 400 mg, Treatment C (400 mg ASD-in-Capsule oral), Day 1, read-out: AUC0-12): 14600 ng·h/mL
AUC(0-t) ([1]; po, 400 mg, Treatment C (400 mg ASD-in-Capsule oral), Day 1, read-out: AUC0-24): 18200 ng·h/mL
AUC(0-t) ([1]; po, 400 mg, Treatment C (400 mg ASD-in-Capsule oral), Day 1, read-out: AUC0-t): 18200 ng·h/mL
AUC(0-inf) [1, 5]: 3550 ng·h/mL
Cmax [1, 5]: 448 ng/mL
half-life [1, 5]: 6.9 h
Vd/F [1, 5]: 291 L
Tmax [1, 5]: 1 h
AUC(0-inf) [1, 7]: 10400 ng·h/mL
Cmax [1, 7]: 1200 ng/mL
half-life [1, 7]: 6.02 h
Vd/F [1, 7]: 176 L
Tmax [1, 7]: 1.02 h
AUC(0-inf) [1, 9]: 19900 ng·h/mL
Cmax [1, 9]: 2730 ng/mL
half-life [1, 9]: 6.48 h
Vd/F [1, 9]: 212 L
Tmax [1, 9]: 1 h
AUC ratio (Day 8/Day 1) ([1]; twice-daily administration, all three dose levels): approximately 1.7 fold
Compound: Cc1cccc(COc2ccc(Sc3ccoc3C3NC(=O)NC3=O)cc2)c1 (stereo not drawn) [compound of formula (I)]
Increase of Cmax and AUC with dose ([1]; from 200 to 400 mg after multiple doses for a week): approximately in a dose-proportional manner
Safety and tolerability, overall ([2]; across all dose levels studied): safe and generally well-tolerated
Severe or serious AEs ([2]; all dose levels and both formulations): No severe or serious AEs were reported
Changes from baseline in weight, vital signs, physical examination, laboratory or ECG data ([2]; any time point): No clinically relevant changes
Adverse events possibly-related to drug administration ([3]; Food effect fasting status): headache
Adverse events possibly-related to drug administration ([3]; Food effect fed status): headache
Total number of AEs possibly related to treatment ([3]; food effect part, in one subject): two
Total number of AEs possibly related to treatment ([4]; MAD study, all dose levels): seven
Adverse events possibly-related to drug administration ([4]; 100 mg): fatigue; also recorded: cough
Adverse events possibly-related to drug administration ([4]; 200 mg): eye irritation; also recorded: erythema; also recorded: dizziness; also recorded: skin rash
Severe or serious AEs ([4]; Study II (MAD and FE parts)): No severe or serious AEs were reported
Changes from baseline in weight, vital signs, physical examination, laboratory or ECG data ([4]; Study II (MAD and FE parts), any time point): No clinically relevant changes
Safety and tolerability, overall ([4]; across all dose levels and dosing regimens studied): safe and generally well-tolerated
